Results taken from patent US7452691B2, “Device and method for detecting antibiotic inactivating enzymes” (priority 2005, dated 2008).
In brackets after ≈: the same amount, converted by molar mass. Like-named read-outs stand apart in the source and are kept apart here.

Assays:
E. coli MISC 208 = experiment: Spectrophotometric hydrolysis assay of β-lactamase released by permeabilizing agent, cefaclor as substrate; assay type: cell-based
Protocol: (§1) H., et al., A.A.C. 1:283-288 (1972). […] The nitrocefin was prewarmed to 37° C.
The experiment in Example 1 was repeated using E. coli MISC 208 and cefaclor as substrate in the hydrolysis assays.

L-1 = L-1 (Stenotrophomonas maltophilia, UniProt P52700); experiment: Indirect reagent disk test, antibiotic inactivation; assay type: cell-based; details: enzyme L-1; indirect method; further: key: P, positive; N, negative; WP, weak positive (slight flattening); ?, results were questionable
Excerpt: (§2) • 1. […] Performing and Interpreting the Test • 1.

PSE-1 = PSE-1 (Pseudomonas aeruginosa, UniProt Q03170); experiment: as above; assay type: cell-based; details: enzyme PSE-1; indirect method
Excerpt: as §2

SHV-2 = SHV-2 (Escherichia coli, UniProt P0A9Z7); experiment: as above; assay type: cell-based; details: enzyme SHV-2; indirect method
Excerpt: (§3) A solution of equal parts of physiological saline and Tris EDTA (Sigma Chemicals) is made. • 2. A 20 microliter aliquot of the permeabilizing agent solution was placed onto a filter paper disk and allowed to dry. […] The filter paper disk impregnated with the permeabilizing agent was rehydrated with 20 microliters of sterile physiological saline. • 2. Using a cotton swab or loop, a test organism was rubbed onto the rehydrated disk. • 3. A Mueller Hinton Agar plate was inoculated with a 0.5 McFarland of E. coli ATCC 25922. • 4. A cefoxitin disk was placed onto the surface of the agar plate. The rehydrated disk inoculated with the test organism next was placed next to the cefoxitin disk, at a distance of about 0.5-1.0 mm. • 5. The agar plate was incubated at 37° C. for about 16 hours, or overnight. • 6. Distortion of the cefoxitin zone was interpreted as a positive result (i.e., the presence of an antibiotic-inactivating factor was detected), whereas lack of distortion of the cefoxitin zone was interpreted as a negative result.
(§4) The indirect method was performed essentially as described in Example 4, except the antibiotic disks were as indicated. An indentation of a zone of inhibition around the antibiotic dish was interpreted as positive for presence of antibiotic-inactivating factor.

SHV-1 = SHV-1 (Klebsiella pneumoniae, UniProt P0AD64); experiment: as above; assay type: cell-based; details: enzyme SHV-1; indirect method
Excerpt: as §3, §4

OXA-6 = experiment: as above; assay type: cell-based; details: enzyme OXA-6; indirect method
Protocol: as §4

OXA-4 = experiment: as above; assay type: cell-based; details: enzyme OXA-4; indirect method
Protocol: as §4

Klebsiella spp. isolates = experiment: Antimicrobial susceptibility by NCCLS microdilution (MIC); assay type: cell-based
Protocol: Thirty recent isolates of Klebsiella spp. were collected from patients in United States hospitals.
Antimicrobial susceptibility was determined by NCCLS microdilution methodology using an investigational Microscan dehydrated panel.

SHV-4 = SHV-4 (Klebsiella pneumoniae, UniProt P37323); experiment: Indirect reagent disk test, antibiotic inactivation; assay type: cell-based; details: enzyme SHV-4; indirect method
Excerpt: as §3, §4

TEM-46 = assay type: cell-based; details: enzyme TEM-46; indirect method
Protocol: as §4

OXA-5 = OXA-5 (Pseudomonas aeruginosa, UniProt Q00982); experiment: Indirect reagent disk test, antibiotic inactivation; assay type: cell-based; details: enzyme OXA-5; indirect method
Protocol: as §4

OXA-2 = OXA-2 (Escherichia coli, UniProt P0A1V9); experiment: as above; assay type: cell-based; details: enzyme OXA-2; indirect method
Protocol: as §4

OXA-3 = OXA-3 (Pseudomonas aeruginosa, UniProt Q51429); experiment: as above; assay type: cell-based; details: enzyme OXA-3; indirect method
Excerpt: as §3, §4

OXA-7 = OXA-7 (Escherichia coli, UniProt P35695); experiment: as above; assay type: cell-based; details: enzyme OXA-7; indirect method
Excerpt: as §3
(§5) An indentation of a zone of inhibition around the antibiotic dish was interpreted as positive for presence of antibiotic-inactivating factor.

FOX-1 = experiment: as above; assay type: cell-based; details: enzyme FOX-1; indirect method
Excerpt: as §3, §4

E. coli V1104 = experiment: Spectrophotometric hydrolysis assay of β-lactamase released by permeabilizing agent, nitrocefin as substrate; assay type: cell-based
Protocol: as §1
The experiment in Example 1 was repeated using E. coli V1104 to evaluate a variety of permeabilizing agents. Nitrocefan was the hydrolysis substrate.

Class A Carbapenemases = experiment: Indirect TE disk test for detection of Class A Carbapenemases; assay type: cell-based; details: for CACs detected by indirect TE disk test: 21 CAC-producing strains, E. coli ATCC 25922 lawn; for False positive results in indirect TE disk test: strains producing non-CAC enzymes (metallo/OXA carbapenemases, AmpC, ESBLs)
Protocol: Methods: 21 strains that produced Class A Carbapenemases (“CACs”) comprising 12 Klebsiella pneumoniae, 5 Enterobacter cloacae, 2 Escherichia coli, and 2 Serratia marcescens; 10 strains of Acinetobacter baumannii, Pseudomonas aeruginosa, and S. marcescens that produced either a metallo-beta-lactamase or an OXA carbapenemases, and 11 strains of Enterobacteriaceae that produced either AmpC β-lactamases or ESBLs were investigated. The test was performed essentially as described in Example 5, with any changes noted below. The indirect test involved inoculation of the surface of a Mueller-Hinton (MH) agar plate with a lawn of E. coli ATCC 25922, not the test organism. Immediately prior to incubation, a premoistened TE disk was inoculated with several colonies of the test organism and placed face down on the MH agar adjacent to a disk containing one of the carbapenems, imipenem (IPM), meropenem (MER), or ertapenem (ERT). After overnight incubation, an indentation of the zone inhibition was interpreted as positive.

LAT-1 = experiment: Indirect reagent disk test, antibiotic inactivation; assay type: cell-based; details: enzyme LAT-1; indirect method; further: key: P, positive; N, negative; WP, weak positive (slight flattening); ?, results were questionable
Excerpt: as §2

[1] = tested on: E. coli MISC 208 (which produces the extended spectrum β-lactamase SHV-2); details: 0° C.
Protocol: In this Example, E. coli MISC 208 (which produces the extended spectrum β-lactamase SHV-2) was used as a test organism and nitrocefin was the substrate in spectrophotometric hydrolysis assays. The E. coli strain was harvested directly into 100 microliters of Mueller Hinton Broth and mixed with 100 microliters of the permeabilizing agent.
In the hydrolysis assay, units of activity are calculated as:
Briefly, a 100 μM solution of nitrocefin was used as a substrate. The nitrocefin was prewarmed to 37° C. The hydrolysis assay was performed at 37° C. at a wavelength of 389.5 with an extinction coefficient of −0.024. An appropriate cuvette was filled with 0.9 ml of the prewarmed nitrocefin substrate and 100 ul of permeabilized bacterial suspension was added. The contents of the cuvette were immediately mixed by inversion and the cuvette was placed in a spectrophotometer. Absorbance was assayed at 5-second intervals for up to 5 minutes with the 37° C. temperature maintained by means of a circulating water bath that warmed the cuvette block. When the assay was complete, the activity was calculated according to the above formula.

ACT-1 = experiment: Indirect reagent disk test, antibiotic inactivation; assay type: cell-based; details: enzyme ACT-1; indirect method
Excerpt: as §3, §5

AmpC = details: enzyme AmpC; indirect method
Excerpt: as §3, §5

[2] = tested on: β-lactamases of Klebsiella isolates (AmpC); experiment: Isoelectric focusing with inhibitor overlays; assay type: biochemical, Klebsiella spp.; details: nine of ten positive Klebsiella isolates; 1000 μM overlay
Protocol: Crude sonicates were subjected to analytical isoelectric focusing (IEF) on an ampholine polyacrylamide gel (pH range 3.5-9.5) on a flatbed apparatus (Multiphor LKB). Inhibitor overlays of the IEF gel were performed with 1000 μM clavulanic acid and cloxacillin.

Sequence of PSE-1 (Q03170 18-288): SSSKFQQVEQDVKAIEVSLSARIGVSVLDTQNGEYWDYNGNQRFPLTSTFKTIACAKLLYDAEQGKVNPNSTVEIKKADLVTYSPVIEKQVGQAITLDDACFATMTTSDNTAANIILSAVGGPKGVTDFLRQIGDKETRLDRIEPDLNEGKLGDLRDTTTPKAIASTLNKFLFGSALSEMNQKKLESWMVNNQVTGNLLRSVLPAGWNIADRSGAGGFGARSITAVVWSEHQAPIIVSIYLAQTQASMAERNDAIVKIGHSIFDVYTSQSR
Sequence of SHV-1 (P0AD64 22-286): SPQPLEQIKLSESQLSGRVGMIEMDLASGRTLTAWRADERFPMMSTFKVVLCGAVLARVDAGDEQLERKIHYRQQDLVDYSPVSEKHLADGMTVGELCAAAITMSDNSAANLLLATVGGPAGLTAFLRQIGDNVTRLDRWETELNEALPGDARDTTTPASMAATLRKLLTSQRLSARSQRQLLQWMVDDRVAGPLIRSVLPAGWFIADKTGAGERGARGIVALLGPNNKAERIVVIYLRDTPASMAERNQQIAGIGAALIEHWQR
Sequence of L-1 (P52700 34-290): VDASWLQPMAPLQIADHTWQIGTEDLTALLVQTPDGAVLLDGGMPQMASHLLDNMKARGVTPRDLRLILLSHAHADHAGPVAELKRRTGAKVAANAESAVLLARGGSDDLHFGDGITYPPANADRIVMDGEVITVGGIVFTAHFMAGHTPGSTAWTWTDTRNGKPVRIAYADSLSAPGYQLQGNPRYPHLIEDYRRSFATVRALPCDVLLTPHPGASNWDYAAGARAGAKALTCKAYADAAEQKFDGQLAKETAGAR
Sequence of OXA-2 (P0A1V9 22-275): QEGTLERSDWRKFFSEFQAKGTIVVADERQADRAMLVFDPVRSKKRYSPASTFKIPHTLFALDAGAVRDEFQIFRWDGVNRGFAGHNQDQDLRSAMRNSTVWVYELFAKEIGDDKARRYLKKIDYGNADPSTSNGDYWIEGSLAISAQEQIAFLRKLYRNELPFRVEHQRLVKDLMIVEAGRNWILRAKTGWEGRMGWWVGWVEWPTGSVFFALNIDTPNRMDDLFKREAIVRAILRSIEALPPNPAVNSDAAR
Sequence of OXA-3 (Q51429 22-275): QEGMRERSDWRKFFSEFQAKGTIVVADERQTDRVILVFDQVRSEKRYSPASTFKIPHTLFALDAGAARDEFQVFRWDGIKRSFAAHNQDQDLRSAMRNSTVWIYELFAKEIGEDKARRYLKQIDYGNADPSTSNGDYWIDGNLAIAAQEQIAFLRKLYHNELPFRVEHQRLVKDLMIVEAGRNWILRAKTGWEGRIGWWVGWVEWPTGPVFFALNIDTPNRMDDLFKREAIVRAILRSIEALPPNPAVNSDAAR
Sequence of OXA-5 (Q00982 20-267): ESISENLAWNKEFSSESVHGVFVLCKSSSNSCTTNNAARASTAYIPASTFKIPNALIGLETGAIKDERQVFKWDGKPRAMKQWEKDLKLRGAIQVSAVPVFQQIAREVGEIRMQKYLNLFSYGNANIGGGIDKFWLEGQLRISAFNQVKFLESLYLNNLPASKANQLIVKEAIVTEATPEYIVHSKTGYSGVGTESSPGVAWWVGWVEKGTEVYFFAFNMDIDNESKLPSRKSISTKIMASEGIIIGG
Sequence of SHV-4 (P37323 whole entry): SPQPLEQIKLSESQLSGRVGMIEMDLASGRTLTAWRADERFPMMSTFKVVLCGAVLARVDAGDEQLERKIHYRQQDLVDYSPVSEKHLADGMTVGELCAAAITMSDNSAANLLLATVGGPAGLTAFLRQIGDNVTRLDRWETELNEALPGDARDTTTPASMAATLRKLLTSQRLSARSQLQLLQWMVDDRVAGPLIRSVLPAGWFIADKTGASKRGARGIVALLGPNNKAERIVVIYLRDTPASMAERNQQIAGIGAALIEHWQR
Sequence of SHV-2 (P0A9Z7 22-286): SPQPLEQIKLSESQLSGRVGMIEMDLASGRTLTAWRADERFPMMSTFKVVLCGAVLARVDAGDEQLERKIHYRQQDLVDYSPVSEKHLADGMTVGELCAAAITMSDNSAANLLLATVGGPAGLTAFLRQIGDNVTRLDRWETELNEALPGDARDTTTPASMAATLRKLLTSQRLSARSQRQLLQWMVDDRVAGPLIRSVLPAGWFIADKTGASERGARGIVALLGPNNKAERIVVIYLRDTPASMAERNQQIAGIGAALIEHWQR
Sequence of OXA-7 (P35695 21-266): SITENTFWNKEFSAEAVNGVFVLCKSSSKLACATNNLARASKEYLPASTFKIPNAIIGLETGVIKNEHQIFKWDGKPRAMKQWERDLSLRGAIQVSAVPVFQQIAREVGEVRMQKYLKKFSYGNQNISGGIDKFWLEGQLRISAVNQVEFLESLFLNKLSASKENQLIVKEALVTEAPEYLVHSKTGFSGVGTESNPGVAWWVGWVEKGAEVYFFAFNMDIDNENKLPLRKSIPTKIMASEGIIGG

Row | Compound | Reagent disk test result (indentation of inhibition zone = antibiotic inactivation) (L-1) | Reagent disk test result (indentation of inhibition zone = antibiotic inactivation) (PSE-1) | Reagent disk test result (indentation of inhibition zone = antibiotic inactivation) (OXA-6) | Reagent disk test result (indentation of inhibition zone = antibiotic inactivation) (OXA-4) | Reagent disk test result (indentation of inhibition zone = antibiotic inactivation) (TEM-46) | Reagent disk test result (indentation of inhibition zone = antibiotic inactivation) (OXA-5) | Reagent disk test result (indentation of inhibition zone = antibiotic inactivation) (OXA-2) | Reagent disk test result (indentation of inhibition zone = antibiotic inactivation) (OXA-3) | other results
1 | Polymyxin B |  |  |  |  |  |  |  |  | Units of β-lactamase Activity (Cefaclor as substrate) (E. coli MISC 208; agent 10 μg/ml): 3.8; Units of β-lactamase Activity (Cefaclor as substrate) (E. coli MISC 208; agent 30 μg/ml): 15
2 | CO[C@@]1(NC(=O)Cc2cccs2)C(=O)N2C(C(=O)O)=C(COC(N)=O)CS[C@@H]21 [FOX, cefoxitin] | N | N^n | N | N | N | N |  |  | Reagent disk test result (indentation of inhibition zone = antibiotic inactivation) (SHV-2): N; Reagent disk test result (indentation of inhibition zone = antibiotic inactivation) (SHV-1): N; MIC (Klebsiella spp. isolates; thirty Klebsiella spp. isolates): ≥ 16 mg/L; MIC (Klebsiella spp. isolates; thirty isolates of Klebsiella spp., read-out: MIC): ≥ 16 mg/L; Reagent disk test result (indentation of inhibition zone = antibiotic inactivation) (SHV-4): N
3 | CO/N=C(\C(=O)N[C@@H]1C(=O)N2C(C(=O)O)=C(CSc3nc(=O)c(O)nn3C)CS[C@H]12)c1csc(N)n1 [CRO, ceftriaxone] | N | N |  | N |  | N | N | N | 
4 | CC(C)(O/N=C(\C(=O)N[C@@H]1C(=O)N2C(C(=O)[O-])=C(C[n+]3ccccc3)CS[C@H]12)c1csc(N)n1)C(=O)O [Ceftazidime, ceftazidime] | N | N | N | N |  | N | N | N | Reagent disk test result (indentation of inhibition zone = antibiotic inactivation) (SHV-1): N; Reagent disk test result (indentation of inhibition zone = antibiotic inactivation) (OXA-7): N; Reagent disk test result (indentation of inhibition zone = antibiotic inactivation) (FOX-1): N; Units of β-lactamase Activity (Nitrocefin as substrate) (E. coli V1104): 196
5 | CCN1CCN(C(=O)N[C@@H](C(=O)N[C@@H]2C(=O)N3[C@@H]2SC(C)(C)[C@@H]3C(=O)O)c2ccccc2)C(=O)C1=O [Piperacillin] |  |  |  |  |  |  |  |  | Units of β-lactamase Activity (Nitrocefin as substrate) (E. coli V1104): 202
6 | CO/N=C(\C(=O)N[C@@H]1C(=O)N2C(C(=O)O)=C(COC(C)=O)CS[C@H]12)c1csc(N)n1 [CTX, cefotaxime] | N | N | WP? |  | N | N | N | N | 
7 | C[C@@H](O)[C@H]1C(=O)N2C(C(=O)O)=C(S[C@@H]3CN[C@H](C(=O)Nc4cccc(C(=O)O)c4)C3)[C@H](C)[C@H]12 [ERT, ertapenem] |  |  |  |  |  |  |  |  | CACs detected by indirect TE disk test (Class A Carbapenemases): all; False positive results in indirect TE disk test (Class A Carbapenemases): no false positive results
8 | C[C@@H](O)[C@H]1C(=O)N2C(C(=O)O)=C(S[C@@H]3CN[C@H](C(=O)N(C)C)C3)[C@H](C)[C@H]12 [MEM, meropenem] | N |  | N | N | N | N | WP? | N | Reagent disk test result (indentation of inhibition zone = antibiotic inactivation) (LAT-1): N; Reagent disk test result (indentation of inhibition zone = antibiotic inactivation) (SHV-2): N; Reagent disk test result (indentation of inhibition zone = antibiotic inactivation) (SHV-1): N; Reagent disk test result (indentation of inhibition zone = antibiotic inactivation) (FOX-1): N; Reagent disk test result (indentation of inhibition zone = antibiotic inactivation) (SHV-4): N; CACs detected by indirect TE disk test (Class A Carbapenemases): 19/21; False positive results in indirect TE disk test (Class A Carbapenemases): no false positive results
9 | CO[C@@]1(NC(=O)CSCC#N)C(=O)N2C(C(=O)O)=C(CSc3nnnn3C)CS[C@@H]21 [CMZ, cefmetazole] |  | P^m |  |  | N |  |  |  | 
10 | NC(CO)(CO)CO [Tris] |  |  |  |  |  |  |  |  | Units of β-lactamase Activity (Nitrocefin as substrate) [1]: 41
11 | CC1(C)S[C@@H]2[C@H](NC(=O)[C@H](N)c3ccccc3)C(=O)N2[C@H]1C(=O)O [AM, ampicillin] | N |  |  |  |  |  |  |  | 
12 | benzalkonium chloride |  |  |  |  |  |  |  |  | Units of β-lactamase Activity (Cefaclor as substrate) (E. coli MISC 208; agent 200 μg/ml): 16
13 | C[C@H]1[C@H](NC(=O)/C(=N\OC(C)(C)C(=O)O)c2csc(N)n2)C(=O)N1S(=O)(=O)O [Aztreonam, aztreonam] | N | N | N | N |  | N | N | N | Reagent disk test result (indentation of inhibition zone = antibiotic inactivation) (LAT-1): N; Reagent disk test result (indentation of inhibition zone = antibiotic inactivation) (SHV-1): N; Reagent disk test result (indentation of inhibition zone = antibiotic inactivation) (ACT-1): N; Reagent disk test result (indentation of inhibition zone = antibiotic inactivation) (FOX-1): N; Reagent disk test result (indentation of inhibition zone = antibiotic inactivation) (AmpC): N; Units of β-lactamase Activity (Nitrocefin as substrate) (E. coli V1104): 210
14 | Cc1onc(-c2ccccc2Cl)c1C(=O)N[C@@H]1C(=O)N2[C@@H]1SC(C)(C)[C@@H]2C(=O)O [cloxacillin] |  |  |  |  |  |  |  |  | Inhibition of β-lactamases (pIs 7.2, 7.7 or ≧9.0) in IEF inhibitor overlay [2]: inhibited
15 | C[C@@H](O)[C@H]1C(=O)N2C(C(=O)O)=C(SCCN=CN)C[C@H]12 [IPM, imipenem] |  |  | N | N | N |  |  |  | Reagent disk test result (indentation of inhibition zone = antibiotic inactivation) (FOX-1): N; MIC (Klebsiella spp. isolates; the one positive Klebsiella isolate producing a carbapenem-hydrolyzing enzyme, read-out: MIC): 64 mg/L (≈ 214 µM)
